Data set [1] has as its system Trypanosoma brucei rhodesiense. The data set is described as follows: Antitrypanosomal activity against Trypanosoma brucei rhodesiense STIB900 infected in NMRI mouse assessed as cure at 5 mg/kg, ip administered for 4 days. The format is functional, organism-based. Also on record: dose 5 mg/kg.
Data set [2] can be described thus: Binding affinity to fish sperm DNA assessed as hypochromicity after 1 min by UV-Vis spectrophotometry. Also on record: concentration or dose not given beside the values.
Data set [3] relates to Hyperoartia. The experiment in a line: Binding affinity to fish sperm DNA by circular dichroism spectroscopy.
Data set [4] has as its system Hyperoartia. The experiment in a line: Binding affinity to fish sperm DNA assessed as weak negative band at compound/DNA ratio 1 to 2 by circular dichroism spectroscopy.
In data set [5] the test system is Hyperoartia. The data set is described as follows: Binding affinity to fish sperm DNA assessed as reduction in positive band at compound/DNA ratio 1 to 2 by circular dichroism spectroscopy.
Data set [6] deals with Hyperoartia. The experiment in a line: Binding affinity to fish sperm DNA assessed as positive band of unvarying intensity at compound/DNA ratio 0.5 to 0.6 by circular dichroism spectroscopy.
Data set [7] in a line: Selectivity index, ratio of CC50 for rat L6 cells to IC50 for bloodstream form of Trypanosoma brucei rhodesiense STIB900. It is filed as functional.
A further data set has as its system L6. The experiment in a line: (§1) Cytotoxicity against rat L6 cells. The settings on record: l6. It is filed as cell-based.
Data set [8] in a line: Selectivity index, ratio of CC50 for rat L6 cells to IC50 for Plasmodium falciparum NF54. It is filed as functional.
In data set [9] the test system is Plasmodium falciparum. The data set is described as follows: Antiprotozoal activity against intraerythrocytic stage of chloroquine-sensitive Plasmodium falciparum NF54 by [3H]hypoxanthine incorporation assay. It is filed as functional, organism-based.
In data set [10] the test system is Trypanosoma brucei rhodesiense. The data set is described as follows: Antiprotozoal activity against bloodstream form of Trypanosoma brucei rhodesiense STIB900 trypomastigote by alamar-blue assay. It is filed as functional, organism-based.
A further data set has as its system Trypanosoma cruzi. The experiment in a line: Antiprotozoal activity against intracellular amastigote stage of Trypanosoma cruzi Tulahuen C4 by colorimetric assay. The format is functional, organism-based.
The nature of data set [11]: as §1. It is filed as cell-based. The following applies: L6 cells.
The test system of data set [12] is Plasmodium falciparum. The data set is described as follows: Antiprotozoal activity against intraerythrocytic stage of chloroquine/pyrimethamine-resistant Plasmodium falciparum K1 by [3H]hypoxanthine incorporation assay. The format is functional, organism-based.
The next data set deals with Leishmania donovani. The experiment in a line: Antiprotozoal activity against axenic amastigote stage of Leishmania donovani MHOM-ET-67/L82 by alamar-blue assay. The format is functional, organism-based.
Data set [13] concerns Trypanosoma brucei rhodesiense. The data set is described as follows: Antitrypanosomal activity against Trypanosoma brucei rhodesiense STIB900 infected in NMRI mouse assessed as cure at 20 mg/kg, ip administered for 4 days. The format is functional, organism-based. Also on record: dose 20 mg/kg.
Data set [14] has as its system Trypanosoma brucei rhodesiense. The experiment in a line: Antitrypanosomal activity against Trypanosoma brucei rhodesiense STIB900 infected in NMRI mouse assessed as time duration by measuring mean day of relapse at 20 mg/kg, ip administered for 4 days. The format is functional. The settings on record: route intraperitoneal.
In data set [15] the test system is Trypanosoma brucei rhodesiense. The experiment in a line: Antitrypanosomal activity against Trypanosoma brucei rhodesiense STIB900 infected in NMRI mouse assessed as time duration by measuring mean day of relapse at 5 mg/kg, ip administered for 4 days. The format is functional. The following applies: route intraperitoneal.
A further data set deals with Mus musculus. The data set is described as follows: Toxicity in NMRI mouse infected with Trypanosoma brucei rhodesiense STIB900 at 20 mg/kg, ip administered for 4 days. The format is organism-based. Also on record: dose 20 mg/kg, route intraperitoneal. The settings on record: in vivo, 96 h.
Data set [16] is described as follows: Selectivity index, ratio of CC50 for rat L6 cells to IC50 for Plasmodium falciparum K1. It is filed as functional.
The test system of data set [17] is Trypanosoma brucei rhodesiense. The data set is described as follows: Antitrypanosomal activity against Trypanosoma brucei rhodesiense STIB900 infected in NMRI mouse assessed as time duration by measuring mean day of relapse at 50 mg/kg, po administered for 4 days. The format is functional.
The test system of data set [18] is Trypanosoma brucei rhodesiense. The data set is described as follows: Antitrypanosomal activity against Trypanosoma brucei rhodesiense STIB900 infected in NMRI mouse assessed as cure at 50 mg/kg, po administered for 4 days. It is filed as functional, organism-based. Also on record: dose 50 mg/kg.

Values joined by “and” are separate entries in the source; they are usually repeats but may differ in a detail not shown here. Equal values may be shown once. Active and inactive are the calls of the source. The rule behind the calls is not given here.

With `O=c1c2ccc(NC3=NCCN3)cc2[nH]c2cc(NC3=NCCN3)ccc12`, in data set [1], the outcome was inactive. Besides, in data set [2], the Activity is 40% and 35%. Also, the outcome in the data set on Hyperoartia [3], with Hyperoartia [4], with Hyperoartia [5] and in the data set on Hyperoartia [6] was Active.

On to `O=C(O)C(F)(F)F.O=C(O)C(F)(F)F.O=c1c2ccc(NC3=NCCN3)cc2[nH]c2cc(NC3=NCCN3)ccc12`, for which the results for the “Ratio CC50/IC50” value in data set [7] and in [8] were 1647 and 1149, respectively. The CC50 in the data set on L6 turned out to be 99 µM. Moreover, the IC50 in the data set on Plasmodium falciparum [9] was determined as 0.09 µM; in data set [10] (Trypanosoma brucei, STIB900), 0.06 µM.

Take `Nc1cccc(Nc2ccc([N+](=O)[O-])cc2C(=O)O)c1`: the IC50 came to 271 µM in the data set on Trypanosoma cruzi; 70 µM with Plasmodium falciparum [12]; 124 µM in data set [10] (Trypanosoma brucei, STIB900); 61 µM in the data set with Leishmania donovani. Besides, in [11], the midpoint of cytotoxicity, the CC50, lay at 266 µM.

For the compound `Cl.Cl.O=c1c2ccc(NC3=NCCN3)cc2[nH]c2ccc(NC3=NCCN3)cc12`, in data set [2], the Activity was found to be 47%. For the same compound, the “Ratio CC50/IC50” value in data set [7] came to 15257; in [8], 128. The result (with Hyperoartia [3]; in data set [13]) was Active. Besides, the IC50 with Trypanosoma cruzi was more than 230 µM; in the data set with Plasmodium falciparum [9] (Plasmodium falciparum, NF54), 0.83 µM; in data set [10] (Trypanosoma brucei, STIB900), 0.007 µM; in the data set with Leishmania donovani, 73 µM. The compound further registered a CC50 in data set [11] of 107 µM. Besides, in data set [14], the Time was more than 50 days.

Consider `COc1cc([C@@H]2c3cc4c(cc3[C@H](O)[C@H]3COC(=O)[C@H]23)OCO4)cc(OC)c1OC` [PODOFILOX], for which the CC50 in [11] is 0.012 µM.

For the compound `Cl.Cl.O=c1c2ccc(NC3=NCCN3)cc2[nH]c2cc(NC3=NCCN3)ccc12`, the Time in data set [15] came to 14 days. Besides, the “Ratio CC50/IC50” value came to 2210 in data set [7] and 546 in data set [8]. The IC50 is more than 230 µM with Trypanosoma cruzi, 0.25 µM in the data set on Plasmodium falciparum [9], 0.062 µM in data set [10] and 113 µM in the data set with Leishmania donovani. Further, the CC50 in [11] was found to be 137 µM. In addition, the Activity entry with Mus musculus is “Non-toxic”.

As for `Nc1ccc2c(=O)c3cc(N)ccc3[nH]c2c1`, the IC50 in the data set on Trypanosoma cruzi was 269 µM; in the data set with Plasmodium falciparum [12], 4.8 µM; in data set [10] (Trypanosoma brucei, STIB900) it was 19.2 µM; with Leishmania donovani, 288 µM. Further, the CC50 in [11] amounted to 23 µM.

`Nc1ccc2[nH]c3ccc(N)cc3c(=O)c2c1`: the IC50 with Trypanosoma cruzi was found to be 149 µM; in the data set with Plasmodium falciparum [12] it was 2.5 µM; in data set [10] (Trypanosoma brucei, STIB900) it was 2.9 µM; in the data set with Leishmania donovani it was 321 µM. In addition, the CC50 in data set [11] came out at 75 µM.

In the case of `Cn1c2ccc(NC3=NCCN3)cc2c(=O)c2ccc(NC3=NCCN3)cc21.O=C(O)C(F)(F)F.O=C(O)C(F)(F)F`, in data set [2], the Activity was determined as 50%. Also, the “Ratio CC50/IC50” value is 12287 in data set [7] and 175 in [8]. In data set [11], this compound came in with a CC50 of 98 µM. The half-inhibitory concentration (IC50) with Plasmodium falciparum [9] (Plasmodium falciparum, NF54) was found to be 0.56 µM; in [10] (Trypanosoma brucei, STIB900), 0.008 µM.

On to `Nc1ccc2c(=O)c3cc([N+](=O)[O-])ccc3[nH]c2c1`, for which the half-maximal inhibitory concentration (IC50) in the data set on Trypanosoma cruzi was 279 µM; in the data set on Plasmodium falciparum [12], 34 µM; in data set [10] (Trypanosoma brucei, STIB900), 67 µM; in the data set on Leishmania donovani it was 291 µM. The compound further displayed a CC50 in data set [11] of 147 µM.

For `O=C(O)C(F)(F)F.O=C(O)C(F)(F)F.O=C1c2ccc(NC3=NCCN3)cc2C(=O)c2ccc(NC3=NCCN3)cc21`, the Activity in data set [2] stood at 46%. Also, the “Ratio CC50/IC50” value in data set [16] is recorded as 1229. Further, the result (in the data set on Hyperoartia [3]; in data set [13]) was Active. For the same compound, the IC50 with Trypanosoma cruzi is 104 µM; in the data set with Plasmodium falciparum [12] it was 0.06 µM; in [10] (Trypanosoma brucei, STIB900), 2.3 µM; in the data set with Leishmania donovani, 145 µM. The midpoint of cytotoxicity in data set [11], the CC50, lay at 75 µM.

Consider `Nc1ccc(Nc2ccc([N+](=O)[O-])cc2C(=O)O)cc1`, for which the IC50 in the data set on Trypanosoma cruzi worked out at 292 µM; with Plasmodium falciparum [12], 52 µM; in data set [10] (Trypanosoma brucei, STIB900) it was 55 µM; with Leishmania donovani it was 23 µM. In data set [11], this compound had a CC50 of more than 365 µM.

`Cl.Cl.O=c1c2cc(NC3=NCCN3)ccc2[nH]c2ccc(NC3=NCCN3)cc12`: the figures for the Time in data set [17] and in [14] were 22 days and more than 45.5 days, respectively. Moreover, in data set [2], the Activity came out at 49%. The “Ratio CC50/IC50” value in data set [7] is more than 3333; in [16], more than 666. Besides, the outcome in data set [13] was Active. Also, in data set [18], the outcome was inactive. The IC50 with Trypanosoma cruzi is more than 230 µM; in the data set with Plasmodium falciparum [12] it was 0.34 µM; in [10] (Trypanosoma brucei, STIB900), 0.069 µM; with Leishmania donovani it was 177 µM. For the same compound, the CC50 in data set [11] was more than 230 µM.

Consider `CCCCCCCCCCCCCCCCOP(=O)([O-])OCC[N+](C)(C)C` [MILTEFOSINE], for which the IC50 with Leishmania donovani came out at 0.45 µM.

In the case of `Cn1c2ccc(NC3=NCCN3)cc2c(=O)c2cc(NC3=NCCN3)ccc21.O=C(O)C(F)(F)F.O=C(O)C(F)(F)F`, the Activity in data set [2] was found to be 48%. The figures for the “Ratio CC50/IC50” value in [7] and in data set [8] were 14843 and 468, respectively. Further, in [11], the CC50 is 104 µM. The 50% inhibitory concentration (IC50) in the data set on Plasmodium falciparum [9] (Plasmodium falciparum, NF54) is 0.22 µM; in data set [10] (Trypanosoma brucei, STIB900) it was 0.007 µM.

Regarding `CC(C)(C)OC(=O)N1CCN(C(=O)OC(C)(C)C)C1=Nc1ccc2[nH]c3ccc(N=C4N(C(=O)OC(C)(C)C)CCN4C(=O)OC(C)(C)C)cc3c(=O)c2c1`, the IC50 with Trypanosoma cruzi is 50 µM; with Plasmodium falciparum [12], 33 µM; in data set [10] (Trypanosoma brucei, STIB900), 2.2 µM; in the data set on Leishmania donovani, more than 127 µM. Moreover, the CC50 in data set [11] was 73 µM.

In the case of `Nc1ccc2[nH]c3ccc([N+](=O)[O-])cc3c(=O)c2c1`, the IC50 with Trypanosoma cruzi came out at 287 µM; with Plasmodium falciparum [12], 49 µM; in [10] (Trypanosoma brucei, STIB900), 19.5 µM; in the data set on Leishmania donovani, 77 µM. The midpoint of cytotoxicity in data set [11], the CC50, lay at 186 µM.

Values taken from ChEMBL document CHEMBL3414460, “Antiprotozoal activity and DNA binding of dicationic acridones” (J Med Chem, 2015).
